“Also recorded” adds a separate entry of the source. Like-named read-outs stand apart in the source and are kept apart here.
Legend:
[1] = tested on: HCV genotype 1b replicon NS3 A156T; type: cell-based; details: EC50 mutant / EC50 wild-type, mean of two experiments (individual values)
Experimental: (§1) The in vitro antiviral of miravirsen was evaluated against wild-type HCV genotype 1b replicon and HCV genotype 1b replicons constructed to contain key amino acid substitutions in NS3 protease (A156T, R155K), NS5B polymerase (S282T, M423I) and NS5A protein (Y93H) in transient transfection assays utilizing Huh 7 cells. […] Huh 7 cells were transfected with either the wild-type or the mutant RNA constructs by electroporation. Luciferase activity was measured 72 hours after compound treatment and EC50 values determined from dose-response curves. Fold resistance was expressed as the ratio of the EC50 for mutant HCV replicon to the EC50 for wild-type HCV replicon.
(§2) The in vitro antiviral of miravirsen was evaluated against wild-type HCV genotype 1b replicon and HCV replicons constructed to contain key amino acid substitutions in NS3 protease (A156T, R155K), NS5B polymerase (S282T, M423I) and NS5A protein (Y93H) in transient transfection assays. […] Huh 7 cells were transfected with either the wild type or the mutant RNA constructs by electroporation. Luciferase activity was measured 72 hours after compound treatment and EC50 values determined from dose-response curves. Fold resistance was expressed as the ratio of the EC50 for mutant HCV replicon to the EC50 for wild-type HCV replicon. Results are expressed as the mean of two individual experiments. In an initial set of experiments, the standard protocol was modified by adding compounds 24 hours after electroporation. […] In a third experiment cells were pretreated with miravirsen for 24 hours before electroporation with wild-type RNA constructs to determine if preincubation could result in increased miravirsen antiviral activity.

[2] = tested on: HCV genotype 1b replicon NS3 R155K; type: cell-based; details: EC50 mutant / EC50 wild-type, mean of two experiments (individual values)
Experimental: as §1, §2

[3] = tested on: HCV genotype 1b replicon NS5B S282T; type: cell-based; details: EC50 mutant / EC50 wild-type; mean of two experiments (individual values)
Experimental: as §1, §2

[4] = tested on: Huh-luc/neo-ET HCV genotype Ib replicon cells; type: cell-based; details: for rate of cell expansion / resistant clonal populations: selection with G418, 28 days; for resistant clonal populations: crystal violet
Experimental: Cell culture and Assay setup: The reporter cell line Huh-luc/neo-ET was obtained and prepare as described previously. Cells were plated into 10 cm tissue culture dishes at a density of 3×10^5 cells per plate in culture medium containing 250 μg/ml G418 and incubated for 24 hours at 37° C. in an environment of 5% C02. Following the 24 hour incubation, dilutions of SPC3649, SPC4729, or telaprevir were prepared in cell culture medium (as above) with 750 μg/ml G418. Each of the dilutions was added to duplicate plates and the plates were incubated at 37° C. in an environment of 5% CO^2. Two additional plates received cell culture medium with 750 μg/ml G418 as a no-treatment control. […] The final concentration of SPC4729 was 10.0 μM. […] Following 28 days of passage, one set of dishes was stained with crystal violet and the other set of plates was utilized for expansion and establishment of resistant cell culture stocks.
Huh-luc/neo-ET HCY genotype Ib replicon cells were cultured under selective pressure in the presence of 750 μg/mL G4 I8 with and without four independent fixed concentrations of SPC3649 anti-miR oligonucleotide, or telaprevir, or one concentration of scrambled oligonucleotide SPC4729 for 28 days in tissue culture plates. Duplicate tissue culture dishes were established and maintained for each culture condition. Medium was replaced bi-weekly during the 28 days of culture and the cells were split at the time of medium replenishment to maintain a confluent cell culture monolayer. Following four weeks in culture, cells were either fixed with methanol and stained with crystal violet or expanded for subsequent phenotypic and genotypic characterization.

[5] = tested on: Huh-luc/neo-ET cells; assay: Cellular toxicity by XTT dye reduction in Huh-luc/neo-ET cells
Experimental: The anti-viral efficacy and cellular toxicity of non-transfected antimiR oligonucleotide in combination with approved and experimental anti-HCV therapeutics (e.g. NM283, 2′-C-methylcytidine, and/or VX-222) (or other NS5B polymerase inhibitors) was determined in the reporter cell line Huh-luc/neo-ET. This cell line harbors the persistently replicating I389luc-ubi-neo/NS3-3′/ET replicon containing the firefly luciferase gene-ubiquitin-neomycin phosphotransferase fusion protein and EMCV IRES driven NS3-5B HCV coding sequences containing the ET tissue culture adaptive mutations (E1202G, T1208I, and K1846T). Eight dilutions of non-transfected antimiR oligonucleotide (bracketing the calculated EC50) were evaluated in triplicate on duplicate sets of three plates with five dilutions of each of the control compounds (bracketing the calculated EC50). One set of plates was used for the determination of cellular toxicity and the other set of plates was used for the determination of anti-viral efficacy. The efficacy and toxicity results was quantified with firefly luciferase activity and XTT dye reduction, respectively, and the results of the assay is imported into the Prichard and Shipman MacSynergy II software program. The MacSynery II analysis includes calculation of the dose response of the two (or more) compounds when used alone followed by calculation of the expected additive level of antiviral inhibition or toxicity when the compounds are used together based on the individual dose response curves. The expected level of activity at each of the concentration data points was compared to the experimentally determined antiviral activity in the assay. The expected activity was subtracted from the realized activity, yielding a negative, zero or positive value. These values are plotted as a three dimensional representation of the data and the result is reported as a two-factor value, expressing the combined average above the expected level of activity (synergy volume) and the combined average below the expected level of activity (antagonism volume). Combination analysis was performed two or more times for each pair of test compound and control substance.
The reporter cell line Huh-luc/neo-ET was obtained from Dr. Ralf Bartenschlager (Department of Molecular Virology, Hygiene Institute, University of Heidelberg, Germany) by ImQuest BioSciences. This cell line harbors the persistently replicating 1389luc-ubi-neo/NS3-3′IET replicon containing the firefly luciferase gene-ubiquitinneomycin phosphotransferase fusion protein and EMCV IRES driven NS3-5B HCV coding sequences containing the ET tissue culture adaptive mutations (E 1202G, T12081, and KI846T). A stock culture of the Huh-luc/neo-ET was expanded by culture in DMEM supplemented with 10% FBS, 2 mM glutamine, penicillin (100 IU/mL)/streptomycin (100 f·Ig/mL) and IX nonessential amino acids plus I mg/ml G418. Prior to plating, the cells were split 1:4 and cultured for two passages in the same medium plus 250 f·Ig/mL G418. The cells were treated with trypsin and enumerated by staining with trypan blue and seeded into 96-well tissue culture plates at a cell culture density 5.0×10^3 cells per well in a volume of 85 f·IL per well and incubated at […] in an environment of 5% CO2 for 24 hours. Six plates were established for the determination of combination efficacy (EC50) and cytotoxicity (TC50) for each of the compound combinations (three plates each for efficacy and toxicity). […]

[6] = in combination with ribavirin, 95% confidence level
[7] = second drug in combination with miravirsen (SPC3649), 95% confidence interval, median or individual values

CCC[C@H](NC(=O)[C@@H]1[C@H]2CCC[C@H]2CN1C(=O)[C@@H](NC(=O)[C@@H](NC(=O)c1cnccn1)C1CCCCC1)C(C)(C)C)C(=O)C(=O)NC1CC1 [Telaprevir, (1S,3aR,6aS)-2-[(2S)-2-[[(2S)-2-Cyclohexyl-2-(pyrazine-2-carbonylamino)acetyl]amino]-3,3-dimethylbutanoyl]-N-[(3S)-1-(cyclopropylamino)-1,2-dioxohexan-3-yl]-3,3a,4,5,6,6a-hexahydro-1H-cyclopenta[c]pyrrole-1-carboxamide]
fold change in susceptibility, NS3 A156T [1]: 36.1 (46.9, 25.2) fold
fold change in susceptibility, NS3 A156T ([1]; listed as telaprevir): 36.1 fold
fold change in susceptibility, NS3 R155K [2]: 4.6 (5.0, 4.2) fold
fold change in susceptibility, NS3 R155K ([2]; listed as telaprevir): 4.6 fold
fold change in susceptibility, NS5B S282T [3]: 1.0 (1.0, 1.0) fold
Cell split ratio ([4]; 1.50 μM plus G418, day 15): N.S.
Cell split ratio ([4]; 1.50 μM plus G418, day 22): N.S.
Cell split ratio ([4]; 3.00 μM plus G418, day 15): N.S.
Cell split ratio ([4]; 3.00 μM plus G418, day 18): N.S.
Cell split ratio ([4]; 3.00 μM plus G418, day 22): N.S.
Cell split ratio ([4]; 3.00 μM plus G418, day 25): N.S.
Cell split ratio ([4]; 6.00 μM plus G418, day 11): N.S.
Cell split ratio ([4]; 6.00 μM plus G418, day 15): N.S.
Cell split ratio ([4]; 6.00 μM plus G418, day 18): N.S.
Cell split ratio ([4]; 6.00 μM plus G418, day 22): N.S.
Cell split ratio ([4]; 6.00 μM plus G418, day 25): N.S.
rate of cell expansion [4]: dose-dependent decrease in the rate of cell expansion
resistant clonal populations [4]: production of distinct individual resistant clonal populations
impact of combination on in vitro cytotoxicity ([5]; in combination with ribavirin): antagonistic interaction
Cytotoxicity, Antag Vol [5, 6]: −50.9 μM^2%
Cytotoxicity, Synergy vol [5, 6]: 0.00 μM^2%
Cytotoxicity, Antagonism vol [5, 7]: −5.05 μM^2%
Cytotoxicity, Synergy vol [5, 7]: 0 μM^2%

5′-^mCs^ocsAs^otstsGs^oTs^ocsas^mCs^oas^mCs^ots^mCs^omC^o-3′ (CCATTGTCACACTCC; all phosphorothioate, sugars by position and methylation of C not given here; further chemistry not fully specified) [miravirsen]
fold change in susceptibility, NS3 A156T [1]: 1.0 (1.4, 0.5) fold
fold change in susceptibility, NS3 R155K [2]: 1.2 (1.9, 0.4) fold
fold change in susceptibility, NS5B S282T [3]: 1.9 (2.6, 1.1) fold
rate of cell expansion [4]: decrease in the rate of cell expansion
resistant clonal populations ([4]; listed as SPC3649): failed to produce distinct individual resistant clonal populations; also recorded: distinct individual resistant clonal populations were not produced
CC50 ([5]; read-out: CC50 (+/−SD), tested alone): > 158 µM
